# Reference: patent US20050222173A1, “Triazolopyrimidines” (priority 2002, published 2005)
# Experiments:
# [1] = logP determination by HPLC (EEC Directive 79/831 Annex V. A8); conditions: for log.P: HPLC, gradient method, acetonitrile/0.1% aqueous phosphoric acid
# Podosphaera leucotricha = assay: Podosphaera test (apple)/protective; assay type: in vivo; conditions: Podosphaera leucotricha, 240 h, protective, evaluation 10 days after inoculation, read-out: Efficacy in %; for pest or weed control at 100 g/ha: application rate 100 g/ha
# Description: Podosphaera Test (Apple)/Protective [table] […] To test for protective activity, young plants are sprayed with the preparation of active compound at the stated application rate. After the spray coating has dried on, the plants are inoculated with an aqueous spore suspension of the apple mildew pathogen Podosphaera leucotricha. The plants are then placed in a greenhouse at about 23° C. and a relative atmospheric humidity of about 70%.
Structure (SMILES),log.P [1],further results
CON(C)c1c(-c2c(F)cc(F)cc2F)c(Cl)nc2nc(Cl)nn12 [Example 71],3.36,
CC1=CCCN(c2c(-c3c(F)cc(F)cc3F)c(Cl)nc3nc(Br)nn23)C1 [Example 72],4.19,
CCC(C)CNc1c(-c2c(F)cc(F)cc2F)c(Cl)nc2nc(Br)nn12 (stereo not drawn) [Example 73],4.05,
CCC(C)Nc1c(-c2c(F)cc(F)cc2F)c(Cl)nc2nc(Cl)nn12 (stereo not drawn) [Example 74],3.7,
CCN(CCOC)c1c(-c2c(F)cc(F)cc2F)c(Cl)nc2nc(Br)nn12 [Example 75],3.62,
C=C(C)CN(CC)c1c(-c2c(F)cc(F)cc2F)c(Cl)nc2nc(Br)nn12 [Example 76],4.4,
CCN(CCOC)c1c(-c2c(F)cc(F)cc2F)c(Cl)nc2nc(Cl)nn12 [Example 77],3.61,
C=C(C)CN(CC)c1c(-c2c(F)cc(F)cc2F)c(Cl)nc2nc(Cl)nn12 [Example 78],4.4,
COc1nc2nc(Cl)c(-c3c(F)cc(F)cc3OC)c(NC(C)C(F)(F)F)n2n1 (stereo not drawn) [Example 80],3.18,
FC(F)(F)C1CCN(c2c(-c3ccccc3Cl)c(Cl)nc3nc(Cl)nn23)CC1 [Example 81],4.22,
CC1CCN(c2c(-c3ccccc3Cl)c(Cl)nc3nc(Cl)nn23)CC1 [Example 82],4.62,
Fc1cc(F)c(-c2c(Cl)nc3nc(Cl)nn3c2N2CCC(F)CC2)c(F)c1 [Example 83],3.55,
CN1CCN(c2c(-c3c(F)cc(F)cc3F)c(Cl)nc3nc(Cl)nn23)CC1 [Example 84],2.71,
CC1CCCCN1c1c(-c2c(F)cc(F)cc2F)c(Cl)nc2nc(Cl)nn12 (stereo not drawn) [Example 85],4.33,
C=C(C)CNc1c(-c2c(F)cc(F)cc2F)c(Cl)nc2nc(Cl)nn12 [Example 86],3.37,
CC1=CCCN(c2c(-c3c(F)cc(F)cc3F)c(Cl)nc3nc(Cl)nn23)C1 [Example 87],4.21,
CC1CCCN(c2c(-c3c(F)cc(F)cc3F)c(Cl)nc3nc(Cl)nn23)C1 (stereo not drawn) [Example 88],4.45,
Fc1cc(F)c(-c2c(Cl)nc3nc(Cl)nn3c2N2CCCCC2)c(F)c1 [Example 89],4.06,
CC1CCN(c2c(-c3c(F)cc(F)cc3F)c(Cl)nc3nc(Cl)nn23)CC1 [Example 90],4.45,
CCC1=CCN(c2c(-c3c(F)cc(F)cc3F)c(Cl)nc3nc(Cl)nn23)CC1 [Example 91],4.63,
CC1CCCN(c2c(-c3ccccc3Cl)c(Cl)nc3nc(Cl)nn23)C1 (stereo not drawn) [Example 92],4.64,

Structure (SMILES),log.P [1],further results
CCC1=CCN(c2c(-c3ccccc3Cl)c(Cl)nc3nc(Cl)nn23)CC1 [Example 93],4.87,
CC(C)Nc1c(-c2c(F)cccc2Cl)c(Cl)nc2nc(Cl)nn12 [Example 94],3.42,
CC(C)Nc1c(-c2ccc(F)cc2F)c(Cl)nc2nc(Cl)nn12 [Example 95],3.31,
CC(Nc1c(-c2ccc(F)cc2F)c(Cl)nc2nc(Cl)nn12)C(F)(F)F (stereo not drawn) [Example 96],3.52,
C[C@@H](Nc1c(-c2ccccc2Cl)c(Cl)nc2nc(Cl)nn12)C(F)(F)F [Example 97],3.63,
C[C@H](Nc1c(-c2c(F)cc(F)cc2F)c(Cl)nc2nc(Br)nn12)C(F)(F)F [Example 99],3.59,
C[C@H](Nc1c(-c2c(F)cccc2Cl)c(Cl)nc2nc(Cl)nn12)C(F)(F)F [Example 100],3.6,
CC(C)CNc1c(-c2ccc(F)cc2F)c(Cl)nc2nc(Cl)nn12 [Example 101],3.61,
CCC(C)Nc1c(-c2ccc(F)cc2F)c(Cl)nc2nc(Cl)nn12 (stereo not drawn) [Example 102],3.63,
Fc1ccc(-c2c(Cl)nc3nc(Cl)nn3c2NC2CCCC2)c(F)c1 [Example 103],3.79,
COCCNc1c(-c2ccc(F)cc2F)c(Cl)nc2nc(Cl)nn12 [Example 104],2.82,
Fc1ccc(-c2c(Cl)nc3nc(Cl)nn3c2NC2CC2)c(F)c1 [Example 105],3.01,
Fc1ccc(-c2c(Cl)nc3nc(Cl)nn3c2NCC(F)(F)F)c(F)c1 [Example 106],3.19,
Fc1ccc(-c2c(Cl)nc3nc(Cl)nn3c2NCC2CC2)c(F)c1 [Example 107],3.36,
C=C(C)CNc1c(-c2ccc(F)cc2F)c(Cl)nc2nc(Cl)nn12 [Example 108],3.3,
CC(C)CC(C)Nc1c(-c2ccc(F)cc2F)c(Cl)nc2nc(Cl)nn12 (stereo not drawn) [Example 109],4.31,
CN(C)CCN(C)c1c(-c2ccc(F)cc2F)c(Cl)nc2nc(Cl)nn12 [Example 110],1.51,
C#CCN(C)c1c(-c2ccc(F)cc2F)c(Cl)nc2nc(Cl)nn12 [Example 111],3.21,
CN(CC1OCCO1)c1c(-c2ccc(F)cc2F)c(Cl)nc2nc(Cl)nn12 [Example 112],3.14,
CN(Cc1ccco1)c1c(-c2ccc(F)cc2F)c(Cl)nc2nc(Cl)nn12 [Example 113],3.69,
CC(C)CN(C)c1c(-c2ccc(F)cc2F)c(Cl)nc2nc(Cl)nn12 [Example 114],4.08,

Structure (SMILES),log.P [1],further results
COCCN(C)c1c(-c2ccc(F)cc2F)c(Cl)nc2nc(Cl)nn12 [Example 115],3.2,
C=C(C)CN(C)c1c(-c2ccc(F)cc2F)c(Cl)nc2nc(Cl)nn12 [Example 116],3.98,
CCN(CCN(C)C)c1c(-c2ccc(F)cc2F)c(Cl)nc2nc(Cl)nn12 [Example 117],1.65,
C=C(C)CN(CC)c1c(-c2ccc(F)cc2F)c(Cl)nc2nc(Cl)nn12 [Example 118],4.3,
C=CCN(CC)c1c(-c2ccc(F)cc2F)c(Cl)nc2nc(Cl)nn12 [Example 119],3.95,
CCN(Cc1ccco1)c1c(-c2ccc(F)cc2F)c(Cl)nc2nc(Cl)nn12 [Example 120],3.98,
CCN(CC1CCCO1)c1c(-c2ccc(F)cc2F)c(Cl)nc2nc(Cl)nn12 (stereo not drawn) [Example 121],3.87,
CCN(CCOC)c1c(-c2ccc(F)cc2F)c(Cl)nc2nc(Cl)nn12 [Example 122],3.51,
CCOC(=O)CN(CC)c1c(-c2ccc(F)cc2F)c(Cl)nc2nc(Cl)nn12 [Example 123],3.61,
CCCCN(CC)c1c(-c2ccc(F)cc2F)c(Cl)nc2nc(Cl)nn12 [Example 124],4.5,
CCN(CC)c1c(-c2ccc(F)cc2F)c(Cl)nc2nc(Cl)nn12 [Example 125],3.74,
CCCN(CC1CC1)c1c(-c2ccc(F)cc2F)c(Cl)nc2nc(Cl)nn12 [Example 126],4.48,
CCCN(CC1CCCO1)c1c(-c2ccc(F)cc2F)c(Cl)nc2nc(Cl)nn12 (stereo not drawn) [Example 127],4.29,
CCCN(CCOC)c1c(-c2ccc(F)cc2F)c(Cl)nc2nc(Cl)nn12 [Example 128],3.9,
Fc1cccc(Cl)c1-c1c(Cl)nc2nc(Cl)nn2c1N1CCSCC1 [Example 131],3.73,
Fc1cccc(Cl)c1-c1c(Cl)nc2nc(Cl)nn2c1N1CCOCC1 [Example 132],3.02,
Fc1cccc(Cl)c1-c1c(Cl)nc2nc(Cl)nn2c1N1CCCC1 [Example 134],3.54,
CCCN(CCOC)c1c(-c2c(F)cccc2Cl)c(Cl)nc2nc(Cl)nn12 [Example 135],4.06,
C=CCN(CC)c1c(-c2c(F)cccc2Cl)c(Cl)nc2nc(Cl)nn12 [Example 137],4.16,
CC(C)CNc1c(-c2c(F)cccc2Cl)c(Cl)nc2nc(Cl)nn12 [Example 139],3.74,
Fc1cccc(Cl)c1-c1c(Cl)nc2nc(Cl)nn2c1NCC1CC1 [Example 143],3.49,

Structure (SMILES),log.P [1],further results
COCCN(C)c1c(-c2c(F)cccc2Cl)c(Cl)nc2nc(Cl)nn12 [Example 148],3.32,
CC(C)C(C)Nc1c(-c2ccccc2Cl)c(Cl)nc2nc(Br)nn12 (stereo not drawn) [Example 170],4.18,
CC(C)C(C)Nc1c(-c2c(F)cc(F)cc2F)c(Cl)nc2nc(Cl)nn12 (stereo not drawn) [Example 171],4.01,
CC(C)C(C)Nc1c(-c2c(F)cccc2Cl)c(Cl)nc2nc(Cl)nn12 (stereo not drawn) [Example 172],4.09,
CC(C)C(C)Nc1c(-c2ccc(F)cc2F)c(Cl)nc2nc(Cl)nn12 (stereo not drawn) [Example 173],3.96,
CC(C)C(C)Nc1c(-c2ccccc2Cl)c(Cl)nc2nc(Cl)nn12 (stereo not drawn) [Example 175],4.16,
"Nc1nnc(Br)[nH]1 [Example 185, 5-bromo-1,2,4-triazole-3-amine]",,chromatographic logP [1]: 0.37
C[C@@H](Nc1c(-c2ccccc2Cl)c(Cl)nc2nc(Cl)nn12)C(F)(F)F [drawing 32],,pest or weed control at 100 g/ha (Podosphaera leucotricha): 100%
C[C@@H](Nc1c(-c2c(F)cc(F)cc2F)c(Cl)nc2nc(Cl)nn12)C(F)(F)F [drawing 33],,pest or weed control at 100 g/ha (Podosphaera leucotricha): 100%
CC(C)Nc1c(-c2ccccc2Cl)c(Cl)nc2nc(Br)nn12 [drawing 34],,pest or weed control at 100 g/ha (Podosphaera leucotricha): 87%
CCC(C)CNc1c(-c2c(F)cc(F)cc2F)c(Cl)nc2nc(Cl)nn12 (stereo not drawn) [drawing 35],,pest or weed control at 100 g/ha (Podosphaera leucotricha): 100%
CCC(C)CNc1c(-c2c(F)cc(F)cc2F)c(Cl)nc2nc(Br)nn12 (stereo not drawn) [drawing 36],,pest or weed control at 100 g/ha (Podosphaera leucotricha): 94%
Clc1nc2nc(Cl)c(-c3ccccc3Cl)c(NCC3CC3)n2n1 [drawing 37],,pest or weed control at 100 g/ha (Podosphaera leucotricha): 97%
C[C@H](Nc1c(-c2c(F)cc(F)cc2F)c(Cl)nc2nc(Br)nn12)C(F)(F)F [drawing 38],,pest or weed control at 100 g/ha (Podosphaera leucotricha): 100%
CC1CCCN(c2c(-c3c(F)cc(F)cc3F)c(Cl)nc3nc(Cl)nn23)C1 (stereo not drawn) [drawing 39],,pest or weed control at 199 g/ha (Podosphaera leucotricha; application rate 199 g/ha): 94%
CC(C)CNc1c(-c2ccc(F)cc2F)c(Cl)nc2nc(Cl)nn12 [drawing 40],,pest or weed control at 100 g/ha (Podosphaera leucotricha): 100%
C[C@H](Nc1c(-c2c(F)cccc2Cl)c(Cl)nc2nc(Cl)nn12)C(F)(F)F [drawing 41],,pest or weed control at 100 g/ha (Podosphaera leucotricha): 100%
Fc1ccc(-c2c(Cl)nc3nc(Cl)nn3c2N[C@@H](Cl)C(F)(F)F)c(F)c1 [drawing 42],,pest or weed control at 100 g/ha (Podosphaera leucotricha): 100%
